Measured values published in patent US12502386B2, “Nitrogen-containing heterocyclic compound and use thereof” (SHANGHAI SHIJIANG BIOTECHNOLOGY CO., LTD, priority 2022, dated 2025).
pIC50: −log10 of the molar value.

Assays:
[1] = tested on: NCI-H82; assay: CellTiter-Glo cell viability, tumor cell line NCI-H82; assay type: cell-based; conditions: NCI-H82, 72 h; human small cell lung cancer cell; 3 days of culture; read-out: inhibitory effect on NCI-H82 (IC50)
Protocol: (§1) Cell viability was detected using the Promega CellTiter-Glo kit, cell viability was determined by directly measuring intracellular ATP content. In the experiment, the IC50 value of the compounds prepared in the Examples of the present invention on various tumor cell lines was detected.
(§2) Each tumor cell was cultured in relevant medium. After cell passage, the gradient diluted compounds prepared in the Examples of the present invention was added. After 3 days of culture, the relevant IC50 (50% inhibiting concentration) was measured. The name, source and culture conditions of each tumor cell line were as follows:
Cell line NCI-H82 (ATCC, No. HTB-175) was cultured in 10% fetal bovine serum-containing RPMI1640 medium (+P/S).

[2] = tested on: GB-1; assay: CellTiter-Glo cell viability, tumor cell line GB-1; assay type: cell-based; conditions: GB-1, 72 h; human brain glioblastoma cell; 3 days of culture; read-out: inhibitory effect on GB-1 (IC50)
Protocol: as §1, §2
Cell line GB-1 (JCRB, No. IFO50489) was cultured in 10% fetal bovine serum-containing DMEM medium (+P/S).
(§3) Cell viability was detected using the Promega CellTiter-Glo kit, cell viability was determined by directly measuring intracellular ATP content. In the experiment, the IC50 value of the compounds prepared in the Examples of the present invention on various brain tumor cell lines was detected.

[3] = tested on: 786-O; assay: CellTiter-Glo cell viability, tumor cell line 786-O; assay type: cell-based; conditions: Homo sapiens, 786-0, 72 h; clear cell renal cell adenocarcinoma cell; 3 days of culture; read-out: inhibitory effect on 786-O (IC50)
Protocol: as §1, §2
Cell line 786-0 (ATCC, No. CRL-1932) was cultured in 10% fetal bovine serum-containing RPMI164B medium (+P/S).

[4] = tested on: SF-126; assay: CellTiter-Glo cell viability, tumor cell line SF-126; assay type: cell-based; conditions: SF-126, 72 h, read-out: inhibitory effect on SF-126 (IC50); human glioblastoma multiforme cell; 3 days of culture
Protocol: as §1, §2
Cell line SF126 (JCRB, No. IFO50286) was cultured in 10% fetal bovine serum-containing EMEM medium (+P/S).
as §3

[5] = tested on: ov-NNMT NCI-H82 cell; assay: CellTiter-Glo cell viability, ov-NNMT NCI-H82 cell (NNMT overexpressed); assay type: cell-based, human; conditions: Homo sapiens, NCI-H82, NCI-H82 overexpressing NNMT protein, intracellular ATP, read-out: inhibitory effect on OV-NNMT NCI-H82 (IC50)
[6] = tested on: NB-1; assay: CellTiter-Glo cell viability, brain tumor cell line NB-1; assay type: cell-based; conditions: Homo sapiens, NB1, 72 h; brain neuroblastoma cell; 3 days of culture; read-out: inhibitory effect on NB-1 (IC50)
Protocol: as §3
as §2, with “follows: […]” for “follows:”

[7] = tested on: D341 Med; assay: CellTiter-Glo cell viability, brain tumor cell line D341 Med; assay type: cell-based; conditions: Homo sapiens, 72 h, cerebellar medulloblastoma cell, 3 days of culture, read-out: inhibitory effect on D341 Med (IC50)
Protocol: as §3, §2
Cell line D341 Med (ATCC, No. HTB-187) was cultured in 20% fetal bovine serum-containing EMEM medium (+P/S).

[8] = tested on: MDA-MB-453; assay: CellTiter-Glo cell viability, tumor cell line MDA-MB-453; assay type: cell-based; conditions: Homo sapiens, MDA-MB-453, 72 h; breast cancer cell; 3 days of culture; read-out: inhibitory effect on MDA-MB-453 (IC50)
Protocol: as §1
as §2, with “follows: […]” for “follows:”

[9] = tested on: Con-NCI-H82 cell; assay: CellTiter-Glo cell viability, Con-NCI-H82 cell (empty-vector control); assay type: cell-based, human; conditions: Homo sapiens, NCI-H82, NCI-H82 transfected with empty virus vector (control), intracellular ATP, read-out: inhibitory effect on Con-NCI-H82 (IC50)
[10] = tested on: Kelly; assay: CellTiter-Glo cell viability, brain tumor cell line Kelly; assay type: cell-based; conditions: Homo sapiens, 72 h, brain neuroblastoma cell, 3 days of culture, read-out: inhibitory effect on Kelly (IC50)
Protocol: as §3, §2
Cell line Kelly (ECACC, No. 92110411) was cultured in 10% fetal bovine serum and 2 mM glutamine-containing RPMI1640 medium.

[11] = tested on: sh-DNMT1 NCI-H82 cell; assay: CellTiter-Glo cell viability, sh-DNMT1 NCI-H82 cell (DNMT1 knocked down); assay type: cell-based, human; conditions: Homo sapiens, NCI-H82, NCI-H82 with DNMT1 knocked down by shRNA, intracellular ATP, read-out: inhibitory effect on sh-DNMT1 NCI-H82 (IC50)
[12] = tested on: CFPAC-1; assay: CellTiter-Glo cell viability, tumor cell line CFPAC-1; assay type: cell-based; conditions: CFPAC-1, 72 h; human pancreatic cancer cell; 3 days of culture; read-out: inhibitory effect on CFPAC-1 (IC50)
Protocol: as §1, §2
Cell line CFPAC-1 (ATCC, No. CRL-1918) was cultured in 10% fetal bovine serum-containing IMDM medium (+P/S).

[13] = tested on: G-401; assay: CellTiter-Glo cell viability, tumor cell line G-401; assay type: cell-based; conditions: G-401, 72 h; human renal carcinoma Wilms cell; 3 days of culture; read-out: inhibitory effect on G-401 (IC50)
Protocol: as §1, §2
Cell line G-401 (ATCC, No. CRL-1441) was cultured in 10% fetal bovine serum-containing McCoy's 5a medium (+P/S).

[14] = tested on: SW48; assay: CellTiter-Glo cell viability, tumor cell line SW48; assay type: cell-based; conditions: SW48, 72 h; human colon adenocarcinoma cell; 3 days of culture; read-out: inhibitory effect on SW48 (IC50)
Protocol: as §1, §2
Cell line SW48 (ATCC, No. CCL-231) was cultured in 10% fetal bovine serum-containing Leibovitz's L-15 medium (+P/S).

[2H]C1c2c(ccc(OC)c2OCCC)C=C2c3cc4c(cc3CCN21)OCO4 (centres unmarked) [AB36437]
pIC50 [1]: 6.19 | pIC50 [2]: 4.70 | pIC50 [3]: 4.70 | pIC50 [4]: 4.78 | pIC50 [5]: 5.56 | pIC50 [6]: 5.59 | pIC50 [7]: 5.67 | pIC50 [8]: 5.87 | pIC50 [9]: 6.19 | pIC50 [10]: 5.72 | pIC50 [11]: 5.51 | pIC50 [12]: 4.84 | pIC50 [13]: 6.01 | pIC50 [14]: 5.59

CCCOc1c(OC)ccc2c1CN1CCc3cc4c(cc3C1=C2)OCO4 [AB35536]
pIC50 [1]: 6.28 | pIC50 [2]: 4.78 | pIC50 [3]: 4.81 | pIC50 [4]: 4.63 | pIC50 [5]: 5.65 | pIC50 [6]: 5.51 | pIC50 [7]: 5.97 | pIC50 [8]: 6.03 | pIC50 [9]: 6.28 | pIC50 [10]: 5.59 | pIC50 [11]: 5.59 | pIC50 [12]: 5.00 | pIC50 [13]: 5.86 | pIC50 [14]: 5.90

COc1ccc2c(c1OC/C=C(\C)CCC=C(C)C)C(C(Cl)(Cl)Cl)N1CCc3cc4c(cc3C1=C2)OCO4 (centres unmarked) [AB35405]
pIC50 [1]: 6.04 | pIC50 [2]: 4.80 | pIC50 [3]: 4.88 | pIC50 [4]: 4.69 | pIC50 [5]: 5.67 | pIC50 [6]: 5.61 | pIC50 [7]: 6.12 | pIC50 [8]: 5.75 | pIC50 [9]: 6.04 | pIC50 [10]: 5.51 | pIC50 [11]: 5.41 | pIC50 [12]: 4.74 | pIC50 [13]: 6.06 | pIC50 [14]: 5.63

COc1ccc2c(c1OCCCCOc1ccccc1)C(C(Cl)(Cl)Cl)N1CCc3cc4c(cc3C1=C2)OCO4 (centres unmarked) [AB35476]
pIC50 [1]: 6.00 | pIC50 [2]: 4.80 | pIC50 [3]: 4.91 | pIC50 [4]: 4.74 | pIC50 [5]: 5.43 | pIC50 [6]: 5.61 | pIC50 [7]: 6.05 | pIC50 [8]: 6.07 | pIC50 [9]: 6.00 | pIC50 [10]: 5.88 | pIC50 [11]: 5.34 | pIC50 [12]: 4.85 | pIC50 [13]: 5.88 | pIC50 [14]: 5.95

COc1ccc2c(c1N1CCC(C)CC1)C(C1CCCC1)N1CCc3cc4c(cc3C1=C2)OCO4 (centres unmarked) [AB35510]
pIC50 [1]: 6.51 | pIC50 [2]: 4.84 | pIC50 [3]: 4.61 | pIC50 [4]: 4.61 | pIC50 [5]: 5.81 | pIC50 [6]: 5.77 | pIC50 [7]: 6.12 | pIC50 [8]: 6.25 | pIC50 [9]: 6.51 | pIC50 [10]: 5.69 | pIC50 [11]: 5.73 | pIC50 [12]: 4.88 | pIC50 [13]: 5.92 | pIC50 [14]: 5.70

COc1ccc2c(c1OC)CN1CCc3cc4c(cc3C1=C2Cc1ccc(OC(F)(F)F)cc1)OCO4 [AB31866]
pIC50 [1]: 6.09 | pIC50 [2]: 4.98 | pIC50 [3]: 4.81 | pIC50 [4]: 4.70 | pIC50 [5]: 5.73 | pIC50 [6]: 5.66 | pIC50 [7]: 5.81 | pIC50 [8]: 5.63 | pIC50 [9]: 6.09 | pIC50 [10]: 5.88 | pIC50 [11]: 5.46 | pIC50 [12]: 4.91 | pIC50 [13]: 5.97 | pIC50 [14]: 5.71

COc1ccc2c(c1OC)C(C1CCCCC1)N1CCc3cc4c(cc3C1=C2)OCO4 (centres unmarked) [AB31893]
pIC50 [1]: 5.95 | pIC50 [2]: 4.81 | pIC50 [3]: 5.01 | pIC50 [4]: 4.91 | pIC50 [5]: 5.39 | pIC50 [6]: 5.73 | pIC50 [7]: 5.84 | pIC50 [8]: 5.77 | pIC50 [9]: 5.95 | pIC50 [10]: 5.68 | pIC50 [11]: 5.25 | pIC50 [12]: 4.96 | pIC50 [13]: 5.84 | pIC50 [14]: 5.73
